The test system of series [1] is CK. Kind of series: Creatine kinase assay in ERα infected HAECT-1 cells (Table 2). The series is classed as cell-based, human. The conditions noted are these: Homo sapiens; for Emax: HAECT1, read-out: CK % Efficacy; for EC50: HAECT1. How it is done:
T-175 flasks of 100% confluent HAECT-1 cells (immortalized human aortic endothelial cells) were washed with 8 ml of HBSS (HEPES buffered saline solution) and infected for fours hours with 6 ml of a 1:10 dilution of Ad5-wt-hERα virus (an adenovirus transfection vector that mediates CMV promoter driven expression of human ERα) in phenol red free Endothelial Cell Basal medium (Clonetics, San Diego, Calif., Catalog # CC-3129) containing 0.25% bovine serum albumin (EDM-BSA). After four hours, cells were washed with EDM-BSA and incubated overnight in the same medium. Following overnight incubation, cells were washed with EDM-BSA and infected for 2 hours with 6 ml of a 1:10 dilution of Ad5-3x(NFκB).Luc virus (Adenovirus luciferase expression vector driven by three repeats of the MHC NFκb sites 5′ to the thymidine kinase promoter) in EDM-BSA. After two hours, cells were washed and incubated at 34° C. for one hour. Cells were then washed, trypsinized, counted, and resuspended in 95% FBS/5% dimethylsulfoxide at a concentration of […], frozen as 1 or 5 ml aliquots in cryo-vials and stored at −150° C. Control (no ER infection) cells were processed as above without Ad5-wt-hERα virus infection.
ERα infected HAECT-1 cells or control cells were thawed, diluted 42× in warm EBM-BSA, plated into 96-well plates at 0.1 ml/well and incubated for 4 hours at 34° C. Test compounds were added to the cells at 2× stocks in EBM-BSA containing 2 ng/ml IL-1β Ad6-IL-6(1250 bp).Luc virus and plates were returned to the incubator (34° C.). After […], cells were lysed with 50 μl of Promega Cell Culture Lysis reagenet for about 5 minutes at room temperature on a shaker. After lysing, 15 μl of lysate is transferred to luminometer plates for luciferase determination. Luciferase activity is evaluated using a Perkin Elmer Victor2 1420 multilabel counter. Creatine kinase was determined from the rate of increase in A340 following addition of 100 μl of CK assay reagent (Sigma catalog no. 47-10) to the remainder of the cell lysate.
For IC50 and EC50 calculations, mean IL-6, luciferase or CK values versus log10 of the compound concentration were fitted to a four parameter logistic equation. The IC50/EC50 value, ‘Hill slope,’ upper and lower limits of the curve were iteratively estimated.

In series [2] the test system is ER/IL-6. Kind of series: Endothelial Cell ER/IL-6 Assay, IL-6 promoter luciferase (Table 2). The conditions noted are these: Homo sapiens, HAECT1, ERα infected HAECT-1 cells, IL-1β; for Emax: read-out: IL6 luc % Efficacy; for IC50: read-out: IL6 luc IC50. The series is classed as cell-based, human. The procedure, abridged:
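HAECT-1 human aortic endothelial cells adenovirally expressing human ERα (or non-ER-infected controls) received compounds as 2× stocks with 2 ng/ml IL-1β and IL-6 promoter (1250 bp)-luciferase adenovirus for […] at 34 °C. ER/IL-6 was read as lysate luciferase and CK as the rate of A340 increase with CK reagent. IC50/EC50 came from four-parameter logistic fits.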

By IC50 is commonly meant the concentration at which inhibition is half-maximal. In general, melting point refers to the temperature, or range, at which the solid turns liquid. Consider `COC(=O)[C@@](C#N)(CCN(C)C)[C@H](c1ccccc1OC)c1cccc2ccccc12` (relative stereo) [Example 157, Methyl (2S*)-2-cyano-4-(dimethylamino)-2-[(S*)-(2-methoxyphenyl)(1-naphthyl)methyl]butanoate], for which the melting point was 142 to 144.5 °C. Also, in series [1], the Emax is -100%. In series [2], the Emax was found to be 110% and the IC50 is 23 nM.

`COC[C@](C#N)(C(=O)NCC(C)(C)C)[C@H](c1ccccc1OC)c1cccc2ccccc12` (relative stereo) [Example 181, (2S*,3S*)-2-cyano-N-(2,2-dimethylpropyl)-2-(methoxymethyl)-3-(2-methoxyphenyl)-3-(1-naphthyl)propanamide] yielded a melting point of 184.9 to 185.5 °C. Moreover, in series [1], the Emax stood at 2%. Moreover, in series [2], the Emax turned out to be 104% and the IC50 came to 389 nM.

Broadly, the EC50 is the concentration at which the effect is half-maximal. `COc1ccccc1[C@H](c1cccc2ccccc12)[C@@](C)(C#N)C(=O)N1CCN(c2cccc(Br)c2)CC1` [Example 131, (2S)-3-[4-(3-bromophenyl)piperazin-1-yl]-2-[(S)-(2-methoxyphenyl)(1-naphthyl)methyl]-2-methyl-3-oxopropanenitrile] had a melting point of 180 to 182 °C. In series [1], the response was half-maximal at 212 nM (EC50) and the Emax came to 48%. Moreover, in series [2], the Emax worked out at 119% and the IC50 stood at 15 nM.

`COc1ccccc1[C@H](c1cccc2ccccc12)[C@@](C)(C#N)C(=O)N1CCC(N2C(=O)Cc3ccccc32)CC1` [Example 132, (2S,3S)-3-(2-methoxyphenyl)-2-methyl-3-(1-naphthyl)-2-{[4-(2-oxo-2,3-dihydro-1H-indol-1-yl)piperidin-1-yl]carbonyl}propanenitrile]: the melting point fell in the range of 227 to 230 °C. Further, in series [1], the EC50 was determined as 298 nM and the Emax is 57%. Moreover, in series [2], the Emax came to 92% and the IC50 worked out at 122 nM.

With `COc1ccccc1C1CCN(C(=O)[C@](C)(C#N)[C@H](c2ccccc2OC)c2cccc3ccccc23)CC1` [Example 138, (2S,3S)-3-(2-methoxyphenyl)-2-{[4-(2-methoxyphenyl)piperidin-1-yl]carbonyl}-2-methyl-3-(1-naphthyl)propanenitrile], the melting point is 135 to 140 °C. Further, in series [1], the EC50 turned out to be 34 nM and the Emax was determined as 49%. For the same molecule, in series [2], the Emax is 131% and the IC50 is 15 nM.

The molecule `COC[C@@](C#N)(C(=O)OC)[C@@H](c1ccccc1OC)c1cccc2ccccc12` [Example 151, Methyl (2R,3R)-2-cyano-2-(methoxymethyl)-3-(2-methoxyphenyl)-3-(1-naphthyl)propanoate] had a melting point of 175.6 to 177.6 °C. For the same molecule, in series [1], the EC50 turned out to be 13.5 nM and the Emax came to 30%. Further, in series [2], the Emax is 141% and the IC50 is 5.5 nM.

With `COC(=O)[C@](C#N)(Cc1cccnc1)[C@@H](c1ccccc1OC)c1cccc2ccccc12` [Example 155, Methyl (2R,3R)-2-cyano-3-(2-methoxyphenyl)-3-(1-naphthyl)-2-(pyridin-3-ylmethyl)propanoate], the melting point was 193 °C (dec.). Besides, in series [1], the EC50 turned out to be 6 nM and the Emax was 33%. In addition, in series [2], the Emax is 105% and the IC50 stood at 2 nM.

For the molecule `COC(=O)C(C)(C#N)C(c1ccccc1OC)c1ccnc2ccccc12` (stereo not drawn) [Example 160, Methyl 2-cyano-3-(2-methoxyphenyl)-2-methyl-3-(quinolin-4-yl)propanoate], the melting point is 192 to 193.9 °C. Moreover, the Emax in series [1] is -10%. Besides, in series [2], the Emax came to 82% and the IC50 is 1260 nM.

`COc1ccccc1C(c1ccnc2ccccc12)C(C#N)(Cc1cccnc1)C(=O)OC(C)(C)C` (stereo not drawn) [Example 166, tert-Butyl 2-cyano-3-(2-methoxyphenyl)-2-(pyridin-3-ylmethyl)-3-quinolin-4-ylpropanoate] yielded a melting point of 225 to 228 °C. In series [1], the Emax is -13%. In addition, in series [2], the Emax stood at 77% and the IC50 came out at 353 nM.

The molecule `COc1ccccc1[C@H](c1cccc2ccccc12)[C@@](C)(C#N)C(=O)N1CCC(n2c(=O)[nH]c3ccccc32)CC1` [Example 183, (2S,3S)-3-(2-methoxyphenyl)-2-methyl-3-(1-naphthyl)-2-{[4-(2-oxo-2,3-dihydro-1H-benzimidazol-1-yl)piperidin-1-yl]carbonyl}propanenitrile] had a melting point of 197 to 200 °C. Besides, in series [1], the EC50 came to 481 nM and the Emax was determined as 63%. In series [2], the Emax was determined as 196% and the IC50 is 361 nM.

In the case of `COc1ccccc1[C@H](c1cccc2ccccc12)[C@@](C)(C#N)C(=O)N1CCC(O)(c2ccc(Cl)cc2)CC1` [Example 186, (2S)-3-[4-(4-chlorophenyl)-4-hydroxypiperidin-1-yl]-2-[(S)-(2-methoxyphenyl)(1-naphthyl)methyl]-2-methyl-3-oxopropanenitrile], the melting point lay in the range of 202 to 204 °C. For the same molecule, in series [1], the Emax was 11%. In series [2], the Emax came to 60% and the IC50 worked out at 2460 nM.

Molecule `COc1ccccc1[C@H](c1cccc2ccccc12)[C@@](C)(C#N)C(=O)N1CCC(c2c[nH]c3ccccc23)CC1` [Example 187, (2S)-3-[4-(1H-indol-3-yl)piperidin-1-yl]-2-[(S)-(2-methoxyphenyl)(1-naphthyl)methyl]-2-methyl-3-oxopropanenitrile] came in with a melting point of 267 to 268 °C. Further, in series [1], the EC50 worked out at 50 nM and the Emax was 48%. Further, in series [2], the Emax stood at 134% and the IC50 was 21 nM.

`COc1ccccc1[C@H](c1cccc2ccccc12)[C@@](C)(C#N)C(=O)N1CCN(c2ncccn2)CC1` [Example 192, (2S,3S)-3-(2-methoxyphenyl)-2-methyl-3-(1-naphthyl)-2-[(4-pyrimidin-2-ylpiperazin-1-yl)carbonyl]propanenitrile] yielded a melting point of 153 to 154 °C. Besides, the EC50 in series [1] is 415 nM. For the same molecule, in series [2], the Emax turned out to be 176% and the IC50 is 44 nM.

`COc1ccccc1[C@H](c1cccc2ccccc12)[C@@](C)(C#N)C(=O)N1CCC(N2CCOCC2)CC1` [Example 203, (2S,3S)-3-(2-methoxyphenyl)-2-methyl-2-[(4-morpholin-4-ylpiperidin-1-yl)carbonyl]-3-(1-naphthyl)propanenitrile] displayed a melting point of 209 to 210 °C. In series [1], the Emax was -26%. For the same molecule, in series [2], the Emax was found to be 28% and the IC50 was determined as 9.93 nM.

`COCC(C#N)(C(=O)N1CCN(CCCN(C)C)CC1)C(c1ccccc1OC)c1cccc2ccccc12` (stereo not drawn) [Example 204, 3-{4-[3-(dimethylamino)propyl]piperazin-1-yl}-2-(methoxymethyl)-2-[(2-methoxyphenyl)(1-naphthyl)methyl]-3-oxopropanenitrile] registered a melting point of 174 to 175 °C. Also, the Emax in series [1] was -34%. Further, in series [2], the Emax amounted to 23% and the IC50 was found to be 117 nM.

As to `COCCN1CCN(C(=O)C(C#N)(COCc2ccccc2)C(c2ccccc2OC)c2cccc3ccccc23)CC1` (stereo not drawn) [Example 207, 2-[(benzyloxy)methyl]-3-[4-(2-methoxyethyl)piperazin-1-yl]-2-[(2-methoxyphenyl)(1-naphthyl)methyl]-3-oxopropanenitrile], the melting point lay in the range of 140 to 141 °C. The Emax in series [1] is -16%. In series [2], the Emax was 63% and the IC50 worked out at 4000 nM.

As for `COc1ccccc1[C@H](c1cccc2ccccc12)[C@@](C)(C#N)C(=O)N1CCN(c2cnccn2)CC1` [Example 214, (2S,3S)-3-(2-methoxyphenyl)-2-methyl-3-(1-naphthyl)-2-[(4-pyrazin-2-ylpiperazin-1-yl)carbonyl]propanenitrile], the melting point was 143 to 144 °C. Moreover, in series [1], the Emax was 12%. In series [2], the Emax was determined as 136% and the IC50 came to 276 nM.

The values above are taken from patent US20050256132A1, “Use of ER selective NF-kB inhibitors for the treatment of sepsis” (priority 2003, published 2005).
